{"source": "ChEMBL document CHEMBL4406896", "about": "“Pyrenocine A induces monopolar spindle formation and suppresses proliferation of cancer cells” (Bioorg Med Chem, 2019)", "key": {"[1]": {"system": "HeLa", "assay": "Induction of cell cycle arrest in human HeLa cells assessed as mono-polar spindles formation surrounded by ring shaped chromosomes in mitotic cells at 3 uM incubated for 6 hrs by Hoechst 33342 staining based confocal microscopic method", "assay_type": "functional"}, "[2]": {"system": "HeLa", "assay": "Antiproliferative activity against human HeLa cells incubated for 48 hrs by WST8 assay", "assay_type": "functional, cell-based"}, "[3]": {"system": "A549", "assay": "Antiproliferative activity against human A549 cells incubated for 48 hrs by WST8 assay", "assay_type": "functional, cell-based", "settings": "A549, 48 h"}, "[4]": {"system": "HeLa", "assay": "Induction of cell cycle arrest in S phase synchronized human HeLa cells stably expressing GFP-HistoneH1 fusion protein assessed as increase in total mitotic cells at 5 uM incubated for 6 hrs by inverted fluorescence microscopic method relative to control", "assay_type": "functional"}, "[5]": {"system": "HeLa", "assay": "Induction of cell cycle arrest in S phase synchronized human HeLa cells stably expressing GFP-HistoneH1 fusion protein assessed as increase in total mitotic cells at 1 uM incubated for 6 hrs by inverted fluorescence microscopic method relative to control", "assay_type": "functional"}, "[6]": {"target": "T1, Kinesin-like protein KIF11 (Homo sapiens) (UniProt P52732)", "T1 sequence (whole entry)": "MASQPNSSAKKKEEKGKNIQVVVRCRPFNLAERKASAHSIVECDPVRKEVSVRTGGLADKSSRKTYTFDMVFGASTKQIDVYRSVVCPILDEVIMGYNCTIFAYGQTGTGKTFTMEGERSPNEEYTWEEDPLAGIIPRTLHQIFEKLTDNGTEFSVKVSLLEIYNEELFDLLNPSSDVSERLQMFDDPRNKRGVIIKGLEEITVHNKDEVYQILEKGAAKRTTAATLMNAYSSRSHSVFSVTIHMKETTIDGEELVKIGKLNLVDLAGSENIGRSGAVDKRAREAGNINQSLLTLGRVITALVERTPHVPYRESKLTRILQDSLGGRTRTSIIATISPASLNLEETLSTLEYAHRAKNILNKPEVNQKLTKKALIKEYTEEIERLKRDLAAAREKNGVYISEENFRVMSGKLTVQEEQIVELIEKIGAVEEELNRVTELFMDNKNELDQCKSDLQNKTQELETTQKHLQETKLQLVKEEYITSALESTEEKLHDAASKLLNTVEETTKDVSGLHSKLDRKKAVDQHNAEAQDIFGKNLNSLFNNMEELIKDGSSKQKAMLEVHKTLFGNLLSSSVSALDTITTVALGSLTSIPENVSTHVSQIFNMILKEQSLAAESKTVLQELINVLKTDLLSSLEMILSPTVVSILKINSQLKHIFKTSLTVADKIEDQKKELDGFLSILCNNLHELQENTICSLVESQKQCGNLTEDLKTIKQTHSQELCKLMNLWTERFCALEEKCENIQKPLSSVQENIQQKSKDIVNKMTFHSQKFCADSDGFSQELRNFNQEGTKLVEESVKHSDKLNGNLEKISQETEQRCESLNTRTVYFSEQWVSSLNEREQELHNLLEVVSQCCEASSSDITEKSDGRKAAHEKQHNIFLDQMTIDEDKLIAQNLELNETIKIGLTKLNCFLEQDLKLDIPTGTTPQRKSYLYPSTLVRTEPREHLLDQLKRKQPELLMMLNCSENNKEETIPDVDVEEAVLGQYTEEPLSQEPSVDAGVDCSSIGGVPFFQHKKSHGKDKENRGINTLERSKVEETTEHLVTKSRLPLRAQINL", "assay": "Inhibition of human Eg5 motor domain (1 to 368 residues) expressed in Escherichia coli assessed as reduction in microtubule-stimulated ATPase activity at 100 uM incubated with ATP for 6 mins by malachite green method"}, "[7]": {"system": "HeLa", "assay": "Induction of cell cycle arrest in S phase synchronized human HeLa cells stably expressing GFP-HistoneH1 fusion protein assessed as formation of ring shaped chromosomes at 5 uM incubated for 4 hrs by inverted fluorescence microscopic method", "assay_type": "functional, cell-based"}, "[8]": {"system": "HeLa", "assay": "Induction of cell cycle arrest in S phase synchronized human HeLa cells stably expressing GFP-HistoneH1 fusion protein assessed as increase in formation of ring shaped chromosomes incubated for 4 hrs by inverted fluorescence microscopic method", "assay_type": "functional, cell-based"}, "[9]": {"system": "HeLa", "assay": "Induction of cell cycle arrest in S phase synchronized human HeLa cells stably expressing GFP-HistoneH1 fusion protein assessed as chromosomes alignment at 5 uM incubated for 3 hrs by inverted fluorescence microscopic method", "assay_type": "functional, cell-based"}, "[10]": {"system": "HeLa", "assay": "Cytotoxicity against human HeLa cells assessed as cell death at 5 to […] incubated for 48 hrs by LDH assay relative to control", "assay_type": "cell-based"}, "[11]": {"system": "HeLa", "assay": "Induction of cell cycle arrest in human HeLa cells assessed as mono-polar spindles formation surrounded by ring shaped chromosomes in mitotic cells at 5 uM incubated for 6 hrs by Hoechst 33342 staining based confocal microscopic method", "assay_type": "functional"}, "[12]": {"system": "HeLa", "assay": "Induction of cell cycle arrest in S phase synchronized human HeLa cells stably expressing GFP-HistoneH1 fusion protein assessed as chromosomes division at 5 uM incubated for 3 hrs by inverted fluorescence microscopic method", "assay_type": "functional, cell-based"}, "[13]": {"system": "HeLa", "assay": "Induction of cell cycle arrest in S phase synchronized human HeLa cells stably expressing GFP-HistoneH1 fusion protein assessed as increase in total mitotic cells at 10 uM incubated for 6 hrs by inverted fluorescence microscopic method relative to control", "assay_type": "functional"}, "[14]": {"system": "Huh-7", "assay": "Antiproliferative activity against human HuH7 cells incubated for 48 hrs by WST8 assay", "assay_type": "functional, cell-based", "settings": "Huh-7, 48 h"}, "[15]": {"system": "HCT-116", "assay": "Antiproliferative activity against human HCT116 cells incubated for 48 hrs by WST8 assay", "assay_type": "functional, cell-based", "settings": "HCT-116, 48 h"}}, "note": "The source made the active and inactive calls. The rule behind the calls is not given here."}
{"smiles": "N[C@@H](CSC(c1ccccc1)(c1ccccc1)c1ccccc1)C(=O)O", "values": [{"measurement": "Activity", "setting": "[1]", "result": "Active"}]}
{"smiles": "C/C=C/Cc1c(O)cc(=O)oc1C", "values": [{"measurement": "IC50", "setting": "[2]", "result": "> 100000", "unit": "nM"}]}
{"smiles": "C/C=C/C(=O)c1c(OC)cc(=O)oc1C", "values": [{"measurement": "IC50", "setting": "[3]", "result": 12900, "unit": "nM"}, {"measurement": "Activity", "setting": "[4]", "result": 7, "unit": "%"}, {"measurement": "IC50", "setting": "[2]", "result": 9300, "unit": "nM"}, {"measurement": "Activity", "setting": "[5]", "result": 2, "unit": "%"}, {"measurement": "Activity", "setting": "[6]", "result": "inactive"}, {"measurement": "Activity", "setting": "[7]", "result": "Active"}, {"measurement": "Activity", "setting": "[8]", "result": "Dose-dependent effect"}, {"measurement": "Activity", "setting": "[9]", "result": "inactive"}, {"measurement": "Activity", "setting": "[10]", "result": "0 to 6", "unit": "%"}, {"measurement": "Activity", "setting": "[11]", "result": "Active"}, {"measurement": "Activity", "setting": "[12]", "result": "inactive"}, {"measurement": "Activity", "setting": "[13]", "result": 14, "unit": "%"}, {"measurement": "IC50", "setting": "[14]", "result": 8600, "unit": "nM"}, {"measurement": "IC50", "setting": "[15]", "result": 2600, "unit": "nM"}]}
{"smiles": "COc1cc(=O)oc(C)c1C(=O)CC(C)O", "note": "(centres undefined)", "values": [{"measurement": "IC50", "setting": "[2]", "result": 22300, "unit": "nM"}]}
{"smiles": "COc1cccc2c1C(=O)c1c(O)c3c(c(O)c1C2=O)C[C@@](O)(C(=O)CO)C[C@@H]3O[C@H]1C[C@H](N)[C@H](O)[C@H](C)O1", "note": "[DOXORUBICIN]", "values": [{"measurement": "IC50", "setting": "[3]", "result": 240, "unit": "nM"}, {"measurement": "IC50", "setting": "[2]", "result": 400, "unit": "nM"}, {"measurement": "IC50", "setting": "[14]", "result": 220, "unit": "nM"}, {"measurement": "IC50", "setting": "[15]", "result": 250, "unit": "nM"}]}
{"smiles": "C#CCOCC/C=C/C(=O)c1c(OC)cc(=O)oc1C", "values": [{"measurement": "IC50", "setting": "[2]", "result": 2300, "unit": "nM"}, {"measurement": "Activity", "setting": "[8]", "result": "Active"}]}
{"smiles": "CCCC(=O)c1c(OC)cc(=O)oc1C", "values": [{"measurement": "IC50", "setting": "[2]", "result": "> 100000", "unit": "nM"}]}
